Literature values, collected in patent US20060080073A1, “Three-dimensional structural activity correlation method” (priority 2002, published 2006).

Molecular target: T1, human corticosteroid-binding globulin (Homo sapiens, UniProt P08185)
T1 sequence (P08185 23-405): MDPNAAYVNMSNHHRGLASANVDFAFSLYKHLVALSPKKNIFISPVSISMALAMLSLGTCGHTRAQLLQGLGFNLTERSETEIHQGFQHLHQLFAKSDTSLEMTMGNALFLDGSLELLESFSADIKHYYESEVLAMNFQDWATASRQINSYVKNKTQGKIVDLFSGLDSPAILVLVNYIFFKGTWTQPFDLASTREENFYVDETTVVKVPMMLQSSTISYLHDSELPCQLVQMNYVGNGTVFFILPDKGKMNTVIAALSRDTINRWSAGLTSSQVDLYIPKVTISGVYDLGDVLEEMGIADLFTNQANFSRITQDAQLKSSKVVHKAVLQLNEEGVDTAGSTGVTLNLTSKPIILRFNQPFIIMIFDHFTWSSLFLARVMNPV
Details: steroid derivatives disclosed by Cramer et al. (CoMFA benchmark); values given as negative logarithmic numbers, no unit

Structure (SMILES) | Binding affinity to human corticosteroid-binding globulins (CBG)
C[C@]12CCC(=O)C=C1CC[C@@H]1[C@@H]2CC[C@]2(C)C(=O)CC[C@@H]12 [androstenedione] | −5.763
CC(=O)[C@H]1CC[C@H]2[C@@H]3CC=C4C[C@@H](O)CC[C@]4(C)[C@H]3CC[C@]12C [pregnenolone] | −5.255
C[C@]12CCC(=O)C=C1CC[C@@H]1[C@@H]2[C@@H](O)C[C@]2(C=O)[C@@H](C(=O)CO)CC[C@@H]12 [aldosterone] | −6.279
C[C@]12CC[C@H]3[C@@H](CCC4=CC(=O)CC[C@@]43C)[C@@H]1CC[C@@H]2O [teststerone] | −6.724
C[C@]12C[C@H](O)[C@H]3[C@@H](CCC4=CC(=O)CC[C@@]43C)[C@@H]1CC[C@@H]2C(=O)CO [corticosterone] | −7.881
C[C@]12CC[C@@H]3c4ccc(O)cc4CC[C@H]3[C@@H]1C[C@@H](O)[C@@H]2O [estriol] | −5.000
C[C@]12CCC(O)CC1CC[C@@H]1[C@@H]2CC[C@]2(C)C(O)CC[C@@H]12 (stereo partly drawn) [androstandiol] | −5.000
C[C@]12CC[C@@H](O)C[C@@H]1CC[C@@H]1[C@@H]2CC[C@]2(C)C(=O)CC[C@@H]12 [androsterone] | −5.613
C[C@]12CCC(=O)C[C@@H]1CC[C@@H]1[C@@H]2CC[C@]2(C)[C@@H](O)CC[C@@H]12 [dihydrotestosterone] | −5.919
C[C@]12CC[C@H](O)CC1=CC[C@@H]1[C@@H]2CC[C@]2(C)C(=O)CC[C@@H]12 [dehydroepiandrosterone] | −5.000
C[C@]12CCC(=O)C=C1CC[C@@H]1[C@@H]2CC[C@@]2(C)[C@H]1CC[C@]2(O)C(=O)CO [deoxycortisole] | −7.881
C[C@]12CC[C@@H](O)C[C@H]1CC[C@@H]1[C@@H]2CC[C@]2(C)C(=O)CC[C@@H]12 [etiocholanolone] | −5.255
CC(=O)[C@H]1CC[C@H]2[C@@H]3CCC4=CC(=O)CC[C@]4(C)[C@H]3CC[C@]12C [progesterone] | −7.380
C[C@]12CC[C@H]3[C@@H](CCC4=CC(=O)CC[C@@]43C)[C@@H]1CC[C@@H]2C(=O)CO [deoxycorticosterone] | −7.653
C[C@]12CCC(=O)C=C1CC[C@@H]1[C@@H]2C(=O)C[C@@]2(C)[C@H]1CC[C@]2(O)C(=O)CO [cortisone] | −6.892
CC(=O)[C@@]1(O)CC[C@H]2[C@@H]3CCC4=CC(=O)CC[C@]4(C)[C@H]3CC[C@@]21C [hydroxy progesterone] | −7.740
CC(=O)[C@@]1(O)CC[C@H]2[C@@H]3CC[C@@H]4C[C@H](O)CC[C@]4(C)[C@H]3CC[C@@]21C [hydroxy pregnenolone] | −5.000
C[C@]12CCC(=O)C=C1CC[C@@H]1[C@@H]2[C@@H](O)C[C@@]2(C)[C@H]1CC[C@]2(O)C(=O)CO [cortisol] | −7.881
